According to patent US7932270B2 (Cytokinetics, Inc., priority 2006, dated 2011):

Target: T1, chicken gizzard smooth muscle myosin subfragment-1 chemically crosslinked to cardiac or skeletal actin (Gallus gallus, UniProt P10587)
T1 construct: chicken gizzard smooth muscle myosin subfragment-1; from tissue; host or cells: chicken gizzard
Assay: Smooth muscle myosin ATPase dose response assay (pyruvate kinase/horseradish peroxidase/pyruvate oxidase-coupled, amplex red fluorescence)
Assay type: biochemical
Details: read-out: IC50 Arithmetic Mean
Summary of the method: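 Amplex red fluorescence (480 nm excitation, 615 nm emission) tracked ATP hydrolysis by smooth muscle S1 crosslinked to actin with carbodiimide/N-hydroxysuccinimide. Reactions contained 0.15 mM ATP and 100 mM KCl at pH 7.00, 22° C. IC50 came from a four-parameter logistic fit.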

T1 sequence (P02607 2-151): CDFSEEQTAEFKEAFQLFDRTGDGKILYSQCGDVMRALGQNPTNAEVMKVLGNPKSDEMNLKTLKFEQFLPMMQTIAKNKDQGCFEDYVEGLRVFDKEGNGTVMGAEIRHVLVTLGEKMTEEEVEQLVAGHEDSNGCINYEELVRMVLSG
T1 sequence (P10587 84-789): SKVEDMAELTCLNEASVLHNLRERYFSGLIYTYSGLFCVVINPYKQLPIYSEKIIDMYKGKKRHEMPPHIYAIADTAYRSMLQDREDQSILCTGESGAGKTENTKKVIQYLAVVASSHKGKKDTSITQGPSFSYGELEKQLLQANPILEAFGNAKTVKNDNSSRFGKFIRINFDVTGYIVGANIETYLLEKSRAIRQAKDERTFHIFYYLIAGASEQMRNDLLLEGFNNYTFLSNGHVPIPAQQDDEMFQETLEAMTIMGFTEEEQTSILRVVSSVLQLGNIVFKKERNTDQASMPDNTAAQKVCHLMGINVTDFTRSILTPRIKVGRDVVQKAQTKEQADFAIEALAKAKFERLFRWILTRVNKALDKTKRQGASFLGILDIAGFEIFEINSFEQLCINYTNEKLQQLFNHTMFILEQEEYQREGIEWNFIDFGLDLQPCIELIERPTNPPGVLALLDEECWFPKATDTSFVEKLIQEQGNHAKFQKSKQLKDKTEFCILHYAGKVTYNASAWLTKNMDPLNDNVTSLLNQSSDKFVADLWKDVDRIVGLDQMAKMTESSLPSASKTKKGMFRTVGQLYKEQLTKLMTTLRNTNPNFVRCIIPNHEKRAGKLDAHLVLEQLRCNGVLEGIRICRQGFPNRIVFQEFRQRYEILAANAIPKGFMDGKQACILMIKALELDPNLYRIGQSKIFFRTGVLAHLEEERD

Row | IC50 [nM] | Structure (SMILES)
1 | 450 | Cc1cccc(CCNc2nc(-c3ccccc3)ccc2C(=O)NCc2cccnc2)c1 [(2-{[2-(3-methylphenyl)ethyl]amino}-6-phenyl(3-pyridyl))-N-(3-pyridylmethyl)carboxamide]
2 | 9 | N#Cc1ccccc1-c1ccc(C(=O)NCc2cccc(CN)n2)c(NCCc2cccc(F)c2)n1 [N-{[6-(aminomethyl)(2-pyridyl)]methy}(6-(2-cyanophenyl)-2-{[2-(3-fluorophenyl)ethyl]amino}(3-pyridyl))carboxamide]
3 | 57400 | CNC(=O)/C=C/c1ccc(-c2ccccc2)nc1NCCc1cccc(F)c1 [(2E)-3-(2-{[2-(3-fluorophenyl)ethyl]amino}-6-phenyl(3-pyridyl))-N-methylprop-2-enamide]
4 | 15700 | CN1CCNC[C@@H]1CNC(=O)c1ccc(-c2ccccc2C#N)nc1NCCc1cccc(F)c1 [N-[((2R)-1-methylpiperazin-2-yl)methyl](6-(2-cyanophenyl)-2-{[2-(3-fluorophenyl)ethyl]amino}(3-pyridyl))carboxamide]
5 | 1980 | N#Cc1ccccc1-c1ccc(C(=O)NCc2ccc(F)c(F)c2)c(NCCc2cccc(F)c2)n1 [N-[(3,4-difluorophenyl)methyl](6-(2-cyanophenyl)-2-{[2-(3-fluorophenyl)ethyl]amino}(3-pyridyl))carboxamide]
6 | 13 | N#Cc1ccccc1-c1ccc(C(=O)NC[C@H]2CCC(=O)N2)c(NCCc2cccc(F)c2)n1 [N-[((2R)-5-oxopyrrolidin-2-yl)methyl](6-(2-cyanophenyl)-2-{[2-(3-fluorophenyl)ethyl]amino}(3-pyridyl))carboxamide]
7 | 30300 | CN(C)C(=O)CNC(=O)c1ccc(-c2ccccc2)nc1NCCc1ccccc1 [N,N-dimethyl-2-({6-phenyl-2-[(2-phenylethyl)amino](3-pyridyl)}carbonylamino)acetamide]
8 | 87 | Cn1cc(-c2nc(NCCc3cccc(F)c3)c(C(=O)NC[C@H]3CCCN3C(=O)CCCN)cc2F)cn1 [N-{[(2R)-1-(4-aminobutanoyl)pyrrolidin-2-yl]methyl}(5-fluoro-2-{[2-(3-fluorophenyl)ethyl]amino}-6-(1-methylpyrazol-4-yl)(3-pyridyl))carboxamide]
9 | 1590 | N#Cc1ccccc1-c1ccc(C(=O)NC[C@H](N)CO)c(NCCc2cccc(F)c2)n1 [N-((2S)-2-amino-3-hydroxypropyl)(6-(2-cyanophenyl)-2-{[2-(3-fluorophenyl)ethyl]amino}(3-pyridyl))carboxamide]
10 | 101 | COC(=O)CNC(=O)c1ccc(-c2ccccc2C#N)nc1NCCc1cccc(F)c1 [methyl 2-[(6-(2-cyanophenyl)-2-{[2-(3-fluorophenyl)ethyl]amino}-3-pyridyl)carbonylamino]acetate]
11 | 73 | COC(=O)N1CC[C@@H]1CNC(=O)c1ccc(-c2ccccc2C#N)nc1NCCc1cccc(F)c1 [methyl (2R)-2-{[(6-(2-cyanophenyl)-2-{[2-(3-fluorophenyl)ethyl]amino}(3-pyridyl))carbonylamino]methyl}azetidinecarboxylate]
12 | 233 | N#Cc1ccccc1-c1ccc(C(=O)NCc2cccc(Br)n2)c(NCCc2cccc(F)c2)n1 [N-[(6-bromo(2-pyridyl))methyl](6-(2-cyanophenyl)-2-{[2-(3-fluorophenyl)ethyl]amino}(3-pyridyl))carboxamide]
13 | 46 | O=C(NCc1cccnc1Cl)c1ccc(-c2cn[nH]c2)nc1NCCc1cccc(F)c1
14 | 136 | N#Cc1ccccc1-c1ccc(C(=O)NCC2CC2)c(NCCc2cccc(F)c2)n1 [(6-(2-cyanophenyl)-2-{[2-(3-fluorophenyl)ethyl]amino}(3-pyridyl))-N-(cyclopropylmethyl)carboxamide]
15 | 26 | N#Cc1ccccc1-c1ccc(C(=O)NC[C@H]2CCCC(=O)N2CCCN)c(NCCc2cccc(F)c2)n1 [N-{[(2R)-1-(3-aminopropyl)-6-oxo(2-piperidyl)]methyl}(6-(2-cyanophenyl)-2-{[2-(3-fluorophenyl)ethyl]amino}(3-pyridyl))carboxamide]
16 | 167 | Cn1cc(-c2nc(NCCc3cccc(F)c3)c(C(=O)NC[C@H]3CCCN3)cc2Cl)cn1 [N-[((2R)pyrrolidin-2-yl)methyl](5-chloro-2-{[2-(3-fluorophenyl)ethyl]amino}-6-(1-methylpyrazol-4-yl)(3-pyridyl))carboxamide]
17 | 5340 | C=Cc1ccccc1-c1ccc(C(=O)NCc2cccnc2)c(NCCc2ccccn2)n1 [{2-[(2-(2-pyridyl)ethyl)amino]-6-(2-vinylphenyl)(3-pyridyl)}-N-(3-pyridylmethyl)carboxamide]
18 | 88 | N#Cc1ccccc1-c1ccc(C(=O)NC[C@H]2CCN2C(=O)[C@@H](N)CO)c(NCCc2cccc(F)c2)n1 [N-{[(2R)-1-((2S)-2-amino-3-hydroxypropanoyl)azetidin-2-yl]methyl}(6-(2-cyanophenyl)-2-{[2-(3-fluorophenyl)ethyl]amino}(3-pyridyl))carboxamide]
19 | 27 | N#Cc1ccccc1-c1ccc(C(=O)NC[C@H]2CCCN2C(=O)OCCN)c(NCCc2cccc(F)c2)n1 [2-aminoethyl (2R)-2-{[(6-(2-cyanophenyl)-2-{[2-(3-fluorophenyl)ethyl]amino}(3-pyridyl))carbonylamino]methyl}pyrrolidinecarboxylate]
20 | 534 | O=C(NCc1cccnc1)c1ccc(-c2ccc(F)c(F)c2)nc1NCCc1cccc(F)c1 [(6-(3,4-difluorophenyl)-2-{[2-(3-fluorophenyl)ethyl]amino}(3-pyridyl))-N-(3-pyridylmethyl)carboxamide]
21 | 401 | N#Cc1ccccc1-c1ccc(C(=O)NCc2cnccc2CN)c(NCCc2cccc(F)c2)n1 [N-{[4-(aminomethyl)(3-pyridyl)]methyl}(6-(2-cyanophenyl)-2-{[2-(3-fluorophenyl)ethyl]amino}(3-pyridyl))carboxamide]
22 | 59 | N[C@@H](CO)C(=O)N1CCC[C@@H]1CNC(=O)c1cc(F)c(-c2cn[nH]c2)nc1NCCc1cccc(F)c1 [N-{[(2R)-1-((2S)-2-amino-3-hydroxypropanoyl)pyrrolidin-2-yl]methyl}(5-fluoro-2-{[2-(3-fluorophenyl)ethyl]amino}-6-pyrazol-4-yl(3-pyridyl))carboxamide]
23 | 1240 | N#Cc1ccccc1-c1ccc(C(=O)NCCCCCCN)c(NCCc2cccc(F)c2)n1 [N-(6-aminohexyl)(6-(2-cyanophenyl)-2-{[2-(3-fluorophenyl)ethyl]amino}(3-pyridyl))carboxamide]
24 | 70 | Cn1cc(-c2nc(NCCc3cccc(F)c3)c(C(=O)NC[C@H]3CCCN3C(=O)CCN)cc2F)cn1 [N-{[(2R)-1-(3-aminopropanoyl)pyrrolidin-2-yl]methyl}(5-fluoro-2-{[2-(3-fluorophenyl)ethyl]amino}-6-(1-methylpyrazol-4-yl)(3-pyridyl))carboxamide]
25 | 6150 | O=C(NCc1ncc[nH]1)c1ccc(-c2ccccc2)nc1NCCc1ccccn1 [N-(imidazol-2-ylmethyl){6-phenyl-2-[(2-(2-pyridyl)ethyl)amino](3-pyridyl)}carboxamide]
26 | 2380 | COC(=O)[C@@H](CN)NC(=O)c1ccc(-c2ccccc2C#N)nc1NCCc1cccc(F)c1 [methyl (2R)-3-amino-2-[(6-(2-cyanophenyl)-2-{[2-(3-fluorophenyl)ethyl]amino}(3-pyridyl))carbonylamino]propanoate]
27 | 587 | Cn1cc(-c2ccc(C(=O)NC[C@H]3CCCN3C(=O)CCN)c(NCCc3cccc(F)c3)n2)cn1 [N-{[(2R)-1-(3-aminopropanoyl)pyrrolidin-2-yl]methyl}(2-{[2-(3-fluorophenyl)ethyl]amino}-6-(1-methylpyrazol-4-yl)(3-pyridyl))carboxamide]
28 | 24 | N#Cc1ccccc1-c1ccc(C(=O)NCc2ccccc2CN)c(NCCc2cccc(F)c2)n1 [N-{[2-(aminomethyl)phenyl]methyl}(6-(2-cyanophenyl)-2-{[2-(3-fluorophenyl)ethyl]amino}(3-pyridyl))carboxamide]

Row | Structure (SMILES) | IC50 [nM]
29 | CC(C)(C)OC(=O)NCCCN1C(=O)CCCCC1CNC(=O)c1ccc(-c2ccccc2C#N)nc1NCCc1cccc(F)c1 (stereo not drawn) [N-[(1-{3-[(tert-butoxy)carbonylamino]propyl}-7-oxoazaperhydroepin-2-yl)methyl](6-(2-cyanophenyl)-2-{[2-(3-fluorophenyl)ethyl]amino}(3-pyridyl))carboxamide] | 17200
30 | CC(C)(C)OC(=O)NCc1ncccc1CNC(=O)c1cc(F)c(-c2ccccn2)nc1NCCc1cccc(F)c1 [N-[(2-{[(tert-butoxy)carbonylamino]methyl}(3-pyridyl))methyl](5-fluoro-2-{[2-(3-fluorophenyl)ethyl]amino}-6-(2-pyridyl)(3-pyridyl))carboxamide] | 3660
31 | CC(C)(C)OC(=O)NCCCN1C(=O)CCC[C@@H]1CNC(=O)c1ccc(-c2ccccc2C#N)nc1NCCc1cccc(F)c1 [N-[((2R)-1-{3-[(tert-butoxy)carbonylamino]propyl}-6-oxo(2-piperidyl))methyl](6-(2-cyanophenyl)-2-{[2-(3-fluorophenyl)ethyl]amino}(3-pyridyl))carboxamide] | 392
32 | Cn1cc(-c2nc(NCCc3cccc(F)c3)c(C(=O)NC[C@H]3CCCN3C(=O)CCCNC(=O)OC(C)(C)C)cc2C#N)cn1 [N-[((2R)-1-{4-[(tert-butoxy)carbonylamino]butanoyl}pyrrolidin-2-yl)methyl](5-cyano-2-{[2-(3-fluorophenyl)ethyl]amino}-6-(1-methylpyrazol-4-yl)(3-pyridyl))carboxamide] | 1610
33 | Cn1cc(-c2nc(NCCc3cccc(F)c3)c(C(=O)NC[C@H]3CCCN3C(=O)[C@H](CCCNC(=O)OC(C)(C)C)NC(=O)OC(C)(C)C)cc2F)cn1 [N-[((2R)-1-{(2S)-2,5-bis[(tert-butoxy)carbonylamino]pentanoyl}pyrrolidin-2-yl)methyl](5-fluoro-2-{[2-(3-fluorophenyl)ethyl]amino}-6-(1-methylpyrazol-4-yl)(3-pyridyl))carboxamide] | 19600
